pIC50: −log10 of the molar value.
Tests used:
[1] = biological target: T1, CK-1δ (Homo sapiens, UniProt P48730); experiment: Cellular target engagement (NanoBRET) competition assay; type: cell-based; set-up: expressed in transfected cells; host or cells: 293T-HEK cells; settings: NanoLuc-tagged kinase in 293T-HEK cells, tracer displacement; read-out: NanoBRET CK-1d IC50
Method: The cell based CK-1δ target engagement assay is a NanoBRET competition assay that directly quantifies compound binding to full length kinases in live cells (Robers M et al. Nat. Comm. No 6 (2015)). The assay utilizes a cell permeable fluorescent tracer that reversibly binds to a NanoLuc-tagged kinase expressed in 293T-HEK cells. Intracellular target engagement of an unmodified test compound was measured by competitive displacement of the tracer resulting in a loss of bioluminescence energy transfer (BRET) that was quantified on a microplate-based luminometer.
(§1) The IC50 ranges are as follows: for NanoBRET IC50 (nM), A denotes <400 nM; B denotes 400 nM≤KD<800 nM; C denotes KD≥800 nM. For the biochemical kinase assay IC50 (nM), A denotes <50 nM; B denotes 50 nM≤IC50<100 nM; C denotes ≥100 nM.

[2] = biological target: T1, CK-1δ; experiment: Biochemical kinase assay (HotSpot radioisotope filter binding, Reaction Biology); set-up: purchased Reaction Biology; settings: read-out: Biochemical Kinase Assay CK-1d IC50
Method: Biochemical inhibition of CK-1δ and kinome selectivity was assessed using a HotSpot radioisotope filter binding assay (Reaction Biology). In the HotSpot assay, compounds were incubated with the kinase, substrate, cofactors, and radioisotope-labeled ATP. The reaction mixtures are then spotted onto filter papers, which bind the radioisotope-labeled catalytic product that can be quantified.
as §1

T1 sequence (P48730 whole entry): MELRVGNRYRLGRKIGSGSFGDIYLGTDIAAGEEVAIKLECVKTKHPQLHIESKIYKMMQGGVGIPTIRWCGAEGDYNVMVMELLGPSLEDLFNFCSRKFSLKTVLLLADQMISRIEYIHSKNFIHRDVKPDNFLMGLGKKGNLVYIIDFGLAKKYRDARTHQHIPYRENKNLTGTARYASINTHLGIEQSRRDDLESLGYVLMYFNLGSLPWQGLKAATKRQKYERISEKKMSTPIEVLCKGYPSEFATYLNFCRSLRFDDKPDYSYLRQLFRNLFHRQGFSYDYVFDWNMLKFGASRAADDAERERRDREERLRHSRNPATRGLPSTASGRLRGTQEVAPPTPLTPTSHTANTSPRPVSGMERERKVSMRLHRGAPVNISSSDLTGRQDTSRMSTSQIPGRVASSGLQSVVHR

Row | pIC50 [1] | pIC50 [2] | SMILES
1 | 6.10 to 6.40 | > 7.30 | CNc1nc(-c2ccncc2)c(-c2ccc(Cl)cc2)c(=O)n1C [Compound 1, 5-(4-chlorophenyl)-3-methyl-2-(methylamino)-6-(pyridin-4-yl)pyrimidin-4(3H)-one]
2 | > 6.40 | > 7.30 | CC(C)Cc1nc(-c2ccncc2)c(-c2ccc(Cl)cc2)c(=O)[nH]1 [Compound 2, 5-(4-chlorophenyl)-2-isobutyl-6-(pyridin-4-yl)pyrimidin-4(3H)-one]
3 | > 6.40 | 7.00 to 7.30 | Cc1cc(-c2nc(CC(C)C)[nH]c(=O)c2-c2ccc(Cl)cc2F)ccn1 [Compound 3, 5-(4-chloro-2-fluorophenyl)-2-isobutyl-6-(2-methylpyridin-4-yl)pyrimidin-4(3H)-one]
